In PMC10425210 (The Journal of Clinical Investigation, 2023):
Where “and” joins values, the source holds several entries; their conditions need not be identical. Identical values can stand only once. Entries after “also recorded” stand apart in the source; their conditions may differ. Like-named read-outs stand apart in the source and are kept apart here.

Tested on: SHIV-SF162P3
Format: in vivo, rhesus macaques

With CC(C)(C#Cc1ccc(-c2ccc(Cl)c3c(NS(C)(=O)=O)nn(CC(F)(F)F)c23)c([C@H](Cc2cc(F)cc(F)c2)NC(=O)Cn2nc(C(F)(F)F)c3c2C(F)(F)[C@@H]2C[C@H]32)n1)S(C)(=O)=O [LEN, Lenacapavir] as the molecule, how does the Challenge outcome (animal V430, 50 mg/kg) read?
Its Challenge outcome is “Not infected”.

And the “Intact SHIV DNA / 10M PBMC” value (animal V430, 50 mg/kg, Wk 2 post challenge)?
The value was 1 / 10M PBMC.

And the “Intact SHIV DNA / 10M PBMC” value (animal V430, 50 mg/kg, Wk 10 post challenge)?
Its value is 1 / 10M PBMC.

What about the “Plasma SHIV RNA” value (animal V430, 50 mg/kg, week 0 post challenge) of the same molecule?
Its value is 62 copies per mL.

And the “Plasma SHIV RNA” value (animal V430, 50 mg/kg, week 1 post challenge)?
The value was 62 copies per mL.

What about the “Plasma SHIV RNA” value (animal V430, 50 mg/kg, week 2 post challenge) of the same molecule?
The value was 62 copies per mL.

What about the “Plasma SHIV RNA” value (animal V430, 50 mg/kg, week 3 post challenge) of the same molecule?
The value was 62 copies per mL.

What about the “Plasma SHIV RNA” value (animal V430, 50 mg/kg, week 4 post challenge) of the same molecule?
The value was 62 copies per mL.

And the “Plasma SHIV RNA” value (animal V430, 50 mg/kg, week 5 post challenge)?
Its value is 62 copies per mL.

What about the “Plasma SHIV RNA” value (animal V430, 50 mg/kg, week 6 post challenge) of the same molecule?
The value was 62 copies per mL.

And the “Plasma SHIV RNA” value (animal V430, 50 mg/kg, week 7 post challenge)?
Its value is 62 copies per mL.

And the “Plasma SHIV RNA” value (animal V430, 50 mg/kg, week 8 post challenge)?
The value was 62 copies per mL.

What about the “Plasma SHIV RNA” value (animal V430, 50 mg/kg, week 9 post challenge) of the same molecule?
The value was 62 copies per mL.

And the “Plasma SHIV RNA” value (animal V430, 50 mg/kg, week 10 post challenge)?
Its value is 62 copies per mL.

And the “Plasma SHIV RNA” value (animal V430, 50 mg/kg, week 11 post challenge)?
The value was 62 copies per mL.

And the “Plasma SHIV RNA” value (animal V430, 50 mg/kg, week 12 post challenge)?
The value was 62 copies per mL.

What about the “Plasma SHIV RNA” value (animal V430, 50 mg/kg, week 13 post challenge) of the same molecule?
Its value is 62 copies per mL.

And the “Plasma SHIV RNA” value (animal V430, 50 mg/kg, week 14 post challenge)?
The value was 62 copies per mL.

And the “Plasma SHIV RNA” value (animal V430, 50 mg/kg, week 15 post challenge)?
Its value is 62 copies per mL.

And the “Plasma SHIV RNA” value (animal V430, 50 mg/kg, week 16 post challenge)?
Its value is 62 copies per mL.

And the “Plasma SHIV RNA” value (animal V430, 50 mg/kg, week 17 post challenge)?
Its value is 62 copies per mL.

What about the “Plasma SHIV RNA” value (animal V430, 50 mg/kg, week 18 post challenge) of the same molecule?
The value was 62 copies per mL.

What about the Challenge outcome (animal V435, 75 mg/kg) of the same molecule?
The Challenge outcome was “Infected”.

And the “Intact SHIV DNA / 10M PBMC” value (animal V435, 75 mg/kg, Wk 2 post challenge)?
The value was 1890.13 / 10M PBMC.

And the “Plasma SHIV RNA” value (animal V435, 75 mg/kg, week 0 post challenge)?
Its value is 62 copies per mL.

What about the “Plasma SHIV RNA” value (animal V435, 75 mg/kg, week 1 post challenge) of the same molecule?
The value was 62 copies per mL.

And the “Plasma SHIV RNA” value (animal V435, 75 mg/kg, week 2 post challenge)?
The value was 756278 copies per mL.

And the “Plasma SHIV RNA” value (animal V435, 75 mg/kg, week 6 post challenge)?
The value was 242042 copies per mL.

And the “Plasma SHIV RNA” value (animal V435, 75 mg/kg, week 7 post challenge)?
Its value is 286179 copies per mL.

And the “Plasma SHIV RNA” value (animal V435, 75 mg/kg, week 9 post challenge)?
Its value is 32896 copies per mL.

What about the “Plasma SHIV RNA” value (animal V435, 75 mg/kg, week 10 post challenge) of the same molecule?
Its value is 40477 copies per mL.

And the “Plasma SHIV RNA” value (animal V435, 75 mg/kg, week 11 post challenge)?
The value was 31394 copies per mL.

And the “Plasma SHIV RNA” value (animal V435, 75 mg/kg, week 12 post challenge)?
Its value is 7502 copies per mL.

What about the “Plasma SHIV RNA” value (animal V435, 75 mg/kg, week 13 post challenge) of the same molecule?
The value was 16622 copies per mL.

And the “Plasma SHIV RNA” value (animal V435, 75 mg/kg, week 14 post challenge)?
Its value is 6647 copies per mL.

What about the “Plasma SHIV RNA” value (animal V435, 75 mg/kg, week 15 post challenge) of the same molecule?
Its value is 46117 copies per mL.

And the “Plasma SHIV RNA” value (animal V435, 75 mg/kg, week 16 post challenge)?
Its value is 21357 copies per mL.

And the “Plasma SHIV RNA” value (animal V435, 75 mg/kg, week 17 post challenge)?
The value was 55828 copies per mL.

What about the “Plasma SHIV RNA” value (animal V435, 75 mg/kg, week 18 post challenge) of the same molecule?
The value was 34073 copies per mL.

What about the “Plasma SHIV RNA” value (animal V435, 75 mg/kg, week 19 post challenge) of the same molecule?
Its value is 913 copies per mL.

And the “Plasma SHIV RNA” value (animal V435, 75 mg/kg, week 20 post challenge)?
The value was 62 copies per mL.

And the Challenge outcome (animal V470, 50 mg/kg)?
Its Challenge outcome is “Not infected”.

And the “Intact SHIV DNA / 10M PBMC” value (animal V470, 50 mg/kg, Wk 2 post challenge)?
The value was 1 / 10M PBMC.

And the “Intact SHIV DNA / 10M PBMC” value (animal V470, 50 mg/kg, Wk 10 post challenge)?
Its value is 1 / 10M PBMC.

What about the “Plasma SHIV RNA” value (animal V470, 50 mg/kg, week 0 post challenge) of the same molecule?
Its value is 62 copies per mL.

What about the “Plasma SHIV RNA” value (animal V470, 50 mg/kg, week 1 post challenge) of the same molecule?
Its value is 62 copies per mL.

What about the “Plasma SHIV RNA” value (animal V470, 50 mg/kg, week 2 post challenge) of the same molecule?
Its value is 62 copies per mL.

What about the “Plasma SHIV RNA” value (animal V470, 50 mg/kg, week 3 post challenge) of the same molecule?
Its value is 62 copies per mL.

And the “Plasma SHIV RNA” value (animal V470, 50 mg/kg, week 4 post challenge)?
The value was 62 copies per mL.

What about the “Plasma SHIV RNA” value (animal V470, 50 mg/kg, week 5 post challenge) of the same molecule?
The value was 62 copies per mL.

What about the “Plasma SHIV RNA” value (animal V470, 50 mg/kg, week 6 post challenge) of the same molecule?
The value was 62 copies per mL.

What about the “Plasma SHIV RNA” value (animal V470, 50 mg/kg, week 7 post challenge) of the same molecule?
The value was 62 copies per mL.

What about the “Plasma SHIV RNA” value (animal V470, 50 mg/kg, week 8 post challenge) of the same molecule?
The value was 62 copies per mL.

What about the “Plasma SHIV RNA” value (animal V470, 50 mg/kg, week 9 post challenge) of the same molecule?
Its value is 62 copies per mL.

And the “Plasma SHIV RNA” value (animal V470, 50 mg/kg, week 10 post challenge)?
The value was 62 copies per mL.

And the “Plasma SHIV RNA” value (animal V470, 50 mg/kg, week 11 post challenge)?
The value was 62 copies per mL.

And the “Plasma SHIV RNA” value (animal V470, 50 mg/kg, week 12 post challenge)?
The value was 62 copies per mL.

And the “Plasma SHIV RNA” value (animal V470, 50 mg/kg, week 13 post challenge)?
Its value is 62 copies per mL.

What about the “Plasma SHIV RNA” value (animal V470, 50 mg/kg, week 14 post challenge) of the same molecule?
The value was 62 copies per mL.

What about the “Plasma SHIV RNA” value (animal V470, 50 mg/kg, week 15 post challenge) of the same molecule?
The value was 62 copies per mL.

What about the “Plasma SHIV RNA” value (animal V470, 50 mg/kg, week 16 post challenge) of the same molecule?
The value was 62 copies per mL.

And the “Plasma SHIV RNA” value (animal V470, 50 mg/kg, week 17 post challenge)?
Its value is 62 copies per mL.

And the “Plasma SHIV RNA” value (animal V470, 50 mg/kg, week 18 post challenge)?
Its value is 62 copies per mL.

What about the “reduction of the rate of infection per exposure” value (compared with the untreated group) of the same molecule?
Its value is “more than 2 fold”.

What about the “intact proviral DNA assay (IPDA) signal” value (eight SHIV-negative animals, weeks 2 and 10) of the same molecule?
The value was “No signal was detected”.

What about the “Peak Plasma SHIV RNA” value (individual LEN-dosed infected animals) of the same molecule?
The value was 299412 copies/mL and 1140343 copies/mL and 35193943 copies/mL.

And the “animals viremic after challenge” value (of 11 LEN-dosed animals, 100 TCID50, 2 weeks after challenge)?
Its value is 3 animals.

And the “anti-capsid (p27) antibody ELISA” value (other 8 animals, through week 10 after challenge)?
The value was “no antibodies were detectable”.

What about the “LEN-dosed animals with confirmed uninfected status” value (plasma PCR, serology, IPDA) of the same molecule?
Its value is 8 of 11.

And the Challenge outcome (rhesus monkey, in vivo)?
The Challenge outcome was “Not infected”.

And the “Intact SHIV DNA / 10M PBMC” value (rhesus monkey, in vivo)?
The value was 1 / 10M PBMC.

What about the “Plasma SHIV RNA” value (rhesus monkey, in vivo) of the same molecule?
The value was 62 copies per mL.

What about the “resistance emergence, capsid sequence of plasma virus” value (rhesus monkey, in vivo) of the same molecule?
The value was “no emerging mutations in capsid; also recorded: No resistance was selected”.

What about the “peak viremia, LEN-dosed infected vs untreated animals” value (same viral inoculum) of the same molecule?
The value was “no significant differences”.
